The test system of series [1] is Homo sapiens. The experiment in a line: (§1) Pharmacokinetic parameters for aspirin and salicylic acid following oral administration of Aspirin,butalbital,caffeine phosphate capsules. The format is ADME, organism-based. On the set-up: dose 650 mg, route oral. Particulars: in vivo, po, dose 650 mg, dosed compound id 37, dosed compound name ASPIRIN, tissue Plasma.
The nature of series [2]: as §1. Particulars: human, in vivo, dosed compound id 37, dosed compound name ASPIRIN, tissue Plasma; for half-life: dose 650 mg, route oral. On the set-up: dose 650 mg, route oral. The format is ADME, organism-based.

Take `CC(=O)Oc1ccccc1C(=O)O` [ASPIRIN]: in series [1], the time of peak concentration (Tmax) (as a rule, the time from dosing to the highest level) stood at 40 min. The highest level in series [2] (po, 650 mg) (Cmax) was 8800 ng/mL. For the same molecule, the half-life (as a rule, how long it takes for the measured level to halve) in series [2] amounted to 12 min.

In series [2], `O=C(O)c1ccccc1O` [SALICYLIC ACID] showed a half-life of 180 min.

(Values after ChEMBL document CHEMBL3832023, “DailyMed|setid=c8b93fc1-472c-4890-8d02-2ee4f7175c22 | BUTALBITAL, ASPIRIN, CAFFEINE AND CODEINE PHOSPHATE- butalbital, aspirin,caffeine and codeine phosphate capsule|Jerome Stevens Pharmaceuticals”.)
